# In patent US20150104507A1 (UCB PHARMA GMBH, priority 2010, published 2015):
# “And” between values parts separate entries of the source, which are not always exact repeats. Identical values can stand only once. Like-named read-outs stand apart in the source and are kept apart here.
# Assays:
# [1] = PK-PD modeling of seizure frequency (Emax model, Example 54); format: in vivo, human; details: human, plasma, read-out: Corresponding AUCτ,ss
# Excerpt: (§1) Objectives of the PK-PD analysis were to evaluate and describe the correlation between the LCM plasma concentration over time (PK parameter) and the reduction of daily seizures over time (PD parameter) based on the pooled data from the previous clinical human trials.
# (§2) The evaluation of PK-PD modeling was done based on the Emax model.
# (§3) The slope of the linear regression is equal to the mean daily number of seizures.
# (§4) In a first step, the validity of the developed equations for approximation of AUCτ,ss, the PK parameter of interest in the current PK-PD evaluation, was shown.
# (§5) Based on the relative difference of the individual slopes during Titration and Maintenance Phase vs Baseline slope and the approximated AUCτ,ss,m, the PK-PD evaluation was performed using a linear model, the Emax model, and the Emax 100 model. […] Finally, the Emax model had the lowest weighted sum of squares and was therefore selected as the most appropriate PK-PD model to describe the data. […] The AUC50 is defined as the AUCτ,ss that is needed in individuals to achieve 50% of the maximum effect (decrease in seizure frequency).
# [2] = tested on: subjects with partial-onset seizures; assay: as above; format: in vivo, human
# Excerpt: as §1, §2, §3, §4, §5
# [3] = cited from earlier work
# [4] = Thorough QT trial: dizziness as adverse event vs tmax; format: in vivo; details: human, plasma, oral; day 6 of SP640; range 1-4 h; read-out: tmax, time for maximum LCM plasma concentration (median)
# Procedure: In a thorough QT trial safety profile of lacosamide (LCM) was characterized. During day 2-6 of multiple dose administration of an IR formulation (Vimpat®) of 200 or 400 mg LCM bid 45 times ‘DIZZINESS’ was detected as adverse event (AE). Time of onset was 1.4+/−0.8 h after actual administration of LCM. This corresponds exactly to the typical time for maximum LCM plasma concentration tmax (e.g., 1 h (median, range 1-4 h) at day 6 of SP640).
# [5] = AUC of 67 μg/mL*h (mean dose 200 mg LCM bid)
# [6] = Emax model, daily dose 50 mg bid (subject with Vd 50 L, ke 0.06 h^-1)
# [7] = Emax model, daily dose 100 mg bid (subject with Vd 50 L, ke 0.06 h^-1)
# [8] = Emax model, daily dose 110 mg bid (subject with Vd 50 L, ke 0.06 h^-1), AUC50
# [9] = Emax model, daily dose 150 mg bid (subject with Vd 50 L, ke 0.06 h^-1)
# [10] = Emax model, daily dose 200 mg bid (subject with Vd 50 L, ke 0.06 h^-1)
# [11] = Emax model, daily dose 250 mg bid (subject with Vd 50 L, ke 0.06 h^-1)
# [12] = Emax model, daily dose 300 mg bid (subject with Vd 50 L, ke 0.06 h^-1)
smiles,measurement,setting,value
"COC[C@@H](NC(C)=O)C(=O)NCc1ccccc1 [Lacosamide, (R)-2-Acetamido-N-benzyl-3-methoxypropionamide]",AUC,[1]; 50 mg,16700 ng·h/mL
same,AUC,[1]; 100 mg,33300 ng·h/mL
same,AUC,[1]; 110 mg,35900 ng·h/mL
same,AUC,[1]; 150 mg,50000 ng·h/mL
same,AUC,[1]; 200 mg,66700 ng·h/mL
same,AUC,[1]; 250 mg,83300 ng·h/mL
same,AUC,[1]; 300 mg,100000 ng·h/mL
same,decrease as percent of the maximum effect,[2]; [5],65%
same,decrease of the daily number of seizures,[2]; [5],46%
same,"AUC50 (AUC needed to achieve half of the maximum effect), arithmetic mean (SD)","[2]; Emax model, N = 615 subjects",35.9 (185.6) μg/mL*h
same,"AUC50, 1st quantile","[2]; Emax model, N = 615 subjects",0 µg·h/mL
same,"AUC50, 3rd quantile","[2]; Emax model, N = 615 subjects",27.27 µg·h/mL
same,"AUC50, median","[2]; Emax model, N = 615 subjects",1.05 µg·h/mL
same,"AUC50, range","[2]; Emax model, N = 615 subjects",0 to 3998 µg·h/mL
same,"Emax, 3rd quantile","[2]; Emax model, N = 615 subjects",100%
same,"Emax, arithmetic mean (SD)","[2]; Emax model, N = 615 subjects",71.0 (30.0) %
same,"Emax, median","[2]; Emax model, N = 615 subjects",77.0%
same,"Emax, range","[2]; Emax model, N = 615 subjects",0.06-100%
same,"Emax, maximum effect (reduction of the seizure frequency vs baseline)","[2]; Emax model, pooled clinical trials, adjunctive LCM",71%
same,"AUC50 (AUC at steady-state to achieve half of the maximum decrease in partial seizure frequency), mean","[2]; Emax model, pooled clinical trials, listed as LCM",35 µg·h/mL and 35.9 µg·h/mL
same,"Decrease of daily number of seizures, E(AUC) % of Emax",[2]; [6],31.7 % of Emax
same,"Decrease of daily number of seizures, E(AUC) % of base line",[2]; [6],22.5 % of base line
same,"Decrease of daily number of seizures, E(AUC) % of Emax",[2]; [7],48.1 % of Emax
same,"Decrease of daily number of seizures, E(AUC) % of base line",[2]; [7],34.2 % of base line
same,"Decrease of daily number of seizures, E(AUC) % of Emax",[2]; [8],50 % of Emax
same,"Decrease of daily number of seizures, E(AUC) % of base line",[2]; [8],35.1 % of base line
same,"Decrease of daily number of seizures, E(AUC) % of Emax",[2]; [9],58.2 % of Emax
same,"Decrease of daily number of seizures, E(AUC) % of base line",[2]; [9],41.3 % of base line
same,"Decrease of daily number of seizures, E(AUC) % of Emax",[2]; [10],65.0 % of Emax
same,"Decrease of daily number of seizures, E(AUC) % of base line",[2]; [10],46.1 % of base line
same,"Decrease of daily number of seizures, E(AUC) % of Emax",[2]; [11],69.9 % of Emax
same,"Decrease of daily number of seizures, E(AUC) % of base line",[2]; [11],49.6 % of base line
same,"Decrease of daily number of seizures, E(AUC) % of Emax",[2]; [12],73.6 % of Emax
same,"Decrease of daily number of seizures, E(AUC) % of base line",[2]; [12],52.2 % of base line
same,decrease as percent of the maximum effect,[2]; in vivo,74%
same,decrease of the daily number of (partial) seizures,[2]; in vivo,52%
same,"maximum dosage-normalized steady state plasma level (Cmax, ss, norm)","[3]; IR tablets twice daily, average distribution volume 50 litres",40 to 43 ng/mL/mg
same,Tmax,"[3]; IR tablets, after administration",1.4 to 1.5 h
same,elimination half-life,[3]; in vivo,13 to 14 h
same,bioavailability,[3]; oral,~100%
same,Tmax,[4],1 h
